Where two headings read alike, the source gives them in different places.

One assay concerns the target T1, rat brain FAAH (Rattus norvegicus, UniProt P97612).
T1 construct: from tissue; host or cells: rat brain (minus cerebellum), washed membrane pellet
T1 sequence (P97612 1-579): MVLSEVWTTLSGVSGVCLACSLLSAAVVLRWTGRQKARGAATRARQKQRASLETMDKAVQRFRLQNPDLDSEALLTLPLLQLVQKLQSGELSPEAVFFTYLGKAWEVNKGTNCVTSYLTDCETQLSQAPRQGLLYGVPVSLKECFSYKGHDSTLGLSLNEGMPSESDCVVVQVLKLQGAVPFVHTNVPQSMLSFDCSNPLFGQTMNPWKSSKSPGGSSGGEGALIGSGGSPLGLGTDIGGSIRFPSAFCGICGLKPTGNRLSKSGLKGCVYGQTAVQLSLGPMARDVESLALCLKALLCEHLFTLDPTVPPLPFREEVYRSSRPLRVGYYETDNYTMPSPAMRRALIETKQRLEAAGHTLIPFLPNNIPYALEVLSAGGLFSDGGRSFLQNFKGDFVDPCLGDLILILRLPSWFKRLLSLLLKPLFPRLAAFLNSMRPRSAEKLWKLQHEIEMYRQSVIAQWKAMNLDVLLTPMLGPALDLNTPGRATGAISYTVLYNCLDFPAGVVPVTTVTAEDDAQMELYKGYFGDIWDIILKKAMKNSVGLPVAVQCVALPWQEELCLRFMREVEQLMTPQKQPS
Briefly: Inhibition of [3H]AEA hydrolysis in rat brain homogenates. The format is biochemical. Conditions: for remaining activity at 0.7 µM: 0.7 μM inhibitor. The method, then:
(§1) Brains (minus cerebella) from adult Wistar or Sprague-Dawley rats (killed by decapitation) and from male B6CBAF1/J mice (killed by cervical dislocation), stored at -80°C, were thawed, weighed and homogenized in cold buffer (20 mM HEPES, 1 mM MgCl2 pH 7.0). Homogenates were centrifuged (35,000 g at 4°C for 20 min) before the pellet was resuspended in cold homogenization buffer. Centrifugation and resuspension was repeated twice. The suspension was incubated at 37°C for 15 min to degrade any endogenous substrate able to interfere with the FAAH assay. After centrifugation (35,000 g at 4°C for 20 min), the pellet was resuspended in cold buffer (50 mM Tris-HCl, 1mM EDTA, 3 mM MgCl2, pH 7.4). The protein concentration was determined according to [27] after which the samples were frozen in aliquots at -80°C.
(§2) The assays were performed according to [28] with minor modifications. Briefly, homogenates or cell lysates in assay buffer (10 mM Tris-HCl, 1mM EDTA, pH 7.4) were mixed with substance dissolved in ethanol on ice. Hydrolysis reactions were initiated by addition of substrate ([^3H]AEA in 10 mM Tris-HCl, 1mM EDTA, pH 7.4 containing 10 mg ml^-1 fatty acid-free bovine serum, assay concentration 0.5 μM unless otherwise stated) and incubation at 37°C. For the brain homogenates, hydrolysis at 37°C was allowed to proceed for 10 min (assay volume was 200 μL, with 1 and 0.3 μg/assay protein concentrations of the rat and mouse homogenates, respectively). For the kinetic experiments, the AEA: fatty acid-free bovine serum albumin ratio was kept constant at 1: ~4.5 (μM). Following incubation, reactions were stopped by addition of 400 μL activated charcoal (80 μL activated charcoal + 320 μL 0.5 M HCl) and placement of samples on ice before centrifugation at 2500 rpm for 10 min. Aliquots (200 μL) of the supernatant were analyzed for tritium content by liquid scintillation spectroscopy with quench correction. Sample sizes were chosen on the basis of previous data investigating FAAH inhibitory properties of compounds.
(§3) pI50 and IC50 values were calculated using log(inhibitor) vs. response with variable slope (four parameters) algorithm in the GraphPad Prism computer program (GraphPad Software Inc., San Diego, CA. USA). […] The best fit was chosen by Akaike’s informative criteria. Ki and α values were obtained using the enzyme kinetics mixed model inhibition curve fitting algorithm available in the GraphPad Prism programme. This models the observed velocity v^app at a given substrate concentration where v^app = Vmax ^app/(1 + Km ^app/[S]), Vmax ^app = Vmax/(1+[I]/(αKi)) and Km ^app = Km(1+[I]/Ki)/(1+[I]/(αKi)) (http://www.graphpad.com/guides/prism/6/curve-fitting/index.htm?reg_mixered_model.htm, URL checked 16 October 2015). The model assuming competitive interactions (where α→∞) was also used, and the best fit was chosen by Akaike’s informative criteria. Robust linear regressions for the Dixon plots, which are less sensitive to outliers than the standard least-squares methodology were undertaken using the same computer programme.

The target in assay [1] is T2, mouse brain FAAH (Mus musculus, UniProt O08914).
T2 construct: from tissue; host or cells: mouse brain (minus cerebellum), washed membrane pellet
T2 sequence (O08914 1-579): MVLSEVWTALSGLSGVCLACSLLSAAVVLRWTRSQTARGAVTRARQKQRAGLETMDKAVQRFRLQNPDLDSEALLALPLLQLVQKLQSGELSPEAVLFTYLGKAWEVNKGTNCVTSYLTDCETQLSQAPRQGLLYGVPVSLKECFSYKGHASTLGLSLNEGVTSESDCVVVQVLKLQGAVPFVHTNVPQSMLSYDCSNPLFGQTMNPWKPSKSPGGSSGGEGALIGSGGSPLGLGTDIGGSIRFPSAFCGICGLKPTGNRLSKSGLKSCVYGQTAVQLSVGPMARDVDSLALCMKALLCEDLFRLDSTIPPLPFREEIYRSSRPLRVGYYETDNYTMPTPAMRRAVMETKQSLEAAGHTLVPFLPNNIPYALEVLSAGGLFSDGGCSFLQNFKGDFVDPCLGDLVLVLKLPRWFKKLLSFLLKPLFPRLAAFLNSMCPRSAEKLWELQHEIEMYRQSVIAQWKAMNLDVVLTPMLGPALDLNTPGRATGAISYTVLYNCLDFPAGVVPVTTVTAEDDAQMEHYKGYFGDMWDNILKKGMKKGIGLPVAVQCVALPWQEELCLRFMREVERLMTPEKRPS
Also on record: method as in PMID 26406890. Conditions: cited from earlier work.

Assay [2] deals with T3, rat wild-type FAAH (FAAH^wt) (Rattus norvegicus, UniProt P97612).
T3 construct: expressed in transfected cells; host or cells: HeLa cells, pcDNA4 plasmid, lysate
T3 sequence (P97612 1-579): T1 sequence (P97612 1-579)
Description: Inhibition of [3H]AEA hydrolysis in lysates of HeLa cells expressing wild-type FAAH. The format is biochemical.

Assay [3] deals with T2, mouse brain FAAH. Briefly: Inhibition of [3H]AEA hydrolysis in mouse brain homogenates. Conditions: 0.5 μM [3H]AEA. Format: biochemical. How it is done:
as §1, §2, §3

As usually defined, the remaining activity is the activity still measured, relative to the control. Low values mean little activity left, high ones much activity left. As a reminder, the Ki is the dissociation constant of the complex between target and ligand, obtained from inhibition or displacement. With `Cc1cccnc1NC(=O)[C@H](C)c1ccc(-c2ccccc2)c(F)c1` [(R)-Flu-AM1, (R)-2-(2-fluorobiphenyl-4-yl)-N-(3-methylpyridin-2-yl)propanamide], the remaining activity at 0.7 µM came to 50 ± 1% on rat brain FAAH (preincubation 0 min at 37°C) and 39 ± 4% on rat brain FAAH (preincubation 60 min at 37°C). Also, on rat brain FAAH (0.5–4 μM [3H]AEA, compared with pure competitive model), the “mode of inhibition (best-fit model)” value is on record as “linear mixed inhibition”. On rat brain FAAH (20-fold dilution after 60 min of preincubation), the reversibility of inhibition result was “completely reversible”. Also, the “interaction with carprofen in multiple inhibition experiments” value at rat brain FAAH (Dixon plots, 0.5 μM [3H]AEA, together with carprofen) is reported as “mutually exclusive manner”. On rat brain FAAH (linear mixed inhibition model fit, 0.5–4 μM [3H]AEA), this molecule showed a α of 3.2±1.3. The Ki came out at 0.63 ± 0.17 µM on rat brain FAAH (linear mixed inhibition model fit, 0.5–4 μM [3H]AEA, read-out: Ki) and 0.28 µM at rat brain FAAH (median of Dixon plot intersections, 0.5–4 μM [3H]AEA, read-out: Ki (Dixon plot)). Besides, the “nH (Hill slope)” value was found to be 0.90±0.04 on rat brain FAAH (rat brain homogenates, 0.5 μM [3H]AEA) and 0.78±0.09 at mouse brain FAAH [3]. The IC50 on rat brain FAAH (rat brain homogenates, 0.5 μM [3H]AEA, read-out: IC50) was 0.74 µM; on rat brain FAAH (rat brain homogenates, 0.5 μM [3H]AEA, read-out: pI50 (converted)) it was 0.741 µM; at mouse brain FAAH [1] (mouse brain homogenates), 8.8 µM; in assay [2] (FAAH^wt + empty vector (0.36 μg/assay) lysates, 18 h, 0.5 μM [3H]AEA, read-out: IC50), 8 µM; in assay [2] (FAAH^wt + empty vector (0.36 μg/assay) lysates, 18 h, 0.5 μM [3H]AEA, read-out: pI50 (converted)) it was 7.94 µM; in assay [2] (FAAH^wt lysate 0.04 μg/assay, 18 h, 0.5 μM [3H]AEA, read-out: IC50), 8.3 µM. Besides, the IC50 in assay [2] (FAAH^wt lysate 0.04 μg/assay, 18 h, 0.5 μM [3H]AEA, read-out: pI50 (converted)) was 8.32 µM; in assay [2] (preliminary experiments, another batch of wild-type FAAH, 1.5–2 μg/assay, 20 min at 37°C, read-out: potencies), 1.6 µM. Further, at mouse brain FAAH [1] (mouse brain FAAH), the mode of inhibition entry is “competitive”. Further, on mouse brain FAAH [1] (mouse brain homogenates), the pI50 is 5.05±0.06. The nH in assay [2] (FAAH^wt + empty vector (0.36 μg/assay) lysates, 18 h, 0.5 μM [3H]AEA) is reported as 0.99±0.06; in assay [2] (FAAH^wt lysate 0.04 μg/assay, 18 h, 0.5 μM [3H]AEA) it was 1.02±0.07.

Values taken from PMC4643906, “Interaction of the N-(3-Methylpyridin-2-yl)amide Derivatives of Flurbiprofen and Ibuprofen with FAAH: Enantiomeric Selectivity and Binding Mode” (PLoS ONE, 2015).
